Test results reported in US10112935B2, “Indazolyl thiadiazolamines and related compounds for inhibition of Rho-associated protein kinase and the treatment of disease” (Lycera Corporation, priority 2015, dated 2018).

How the values were obtained:
[1] = target: GST-tagged human ROCK1 catalytic domain 1-477 (Homo sapiens (Human), UniProt Q13464); test: Inhibition of Rho-associated protein kinase isoform 1 (LANCE Ultra ULight-CREBtide FRET kinase assay); assay type: biochemical; conditions: 30 μM was the highest concentration analyzed
Chain of GST-tagged human ROCK1 catalytic domain 1-477 (Q13464 1-477): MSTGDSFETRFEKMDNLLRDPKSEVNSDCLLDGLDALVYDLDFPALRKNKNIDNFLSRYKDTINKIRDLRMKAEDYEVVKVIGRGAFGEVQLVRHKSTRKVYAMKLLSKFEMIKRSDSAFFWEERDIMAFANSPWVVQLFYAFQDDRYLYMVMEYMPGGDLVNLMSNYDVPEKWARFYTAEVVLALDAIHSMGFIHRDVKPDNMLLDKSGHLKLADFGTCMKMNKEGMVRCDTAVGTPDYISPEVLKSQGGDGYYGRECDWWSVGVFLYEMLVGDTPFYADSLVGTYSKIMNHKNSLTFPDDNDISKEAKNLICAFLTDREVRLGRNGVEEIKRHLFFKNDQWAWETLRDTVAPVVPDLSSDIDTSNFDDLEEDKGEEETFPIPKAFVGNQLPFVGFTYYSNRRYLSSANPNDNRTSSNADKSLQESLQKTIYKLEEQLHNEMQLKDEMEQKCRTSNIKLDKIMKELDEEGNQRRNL
Description: (§1) Exemplary compounds were tested for ability to inhibit Rho-associated protein kinase isoform 1 (ROCK1) and Rho-associated protein kinase isoform 2 (ROCK2). Assay procedures and results are described below.
(§2) Protein constructs were purified from a baculovirus expression system. The peptide substrate was fluorescent LANCE® Ultra ULight-CREBtide: […] (PerkinElmer, # TRF0107-D). […] After a 90 minute incubation at room temperature on a shaker table, the kinase reaction was stopped by addition of 10 mM EDTA, and phosphorylation of the substrate was detected by adding 1 nM LANCE® Ultra Europium-anti-phospho-CREB (ser133) antibody (PerkinElmer, # TRF0200-D) and incubating for 60 minutes on a shaker at room temperature. The flurorescence resonance energy transfer (FRET) signals were read and analyzed on an Envision™ 2103 Multilabel Reader (Perkin Elmer).

[2] = target: GST-tagged human ROCK2 catalytic domain 1-553 (Homo sapiens (Human), UniProt O75116); test: Inhibition of Rho-associated protein kinase isoform 2 (LANCE Ultra ULight-CREBtide FRET kinase assay); assay type: biochemical; conditions: for IC50: 30 μM was the highest concentration analyzed; for Selectivity for ROCK2 over ROCK1 (IC50 ROCK1 / IC50 ROCK2): selectivity ROCK2 vs ROCK1
Chain of GST-tagged human ROCK2 catalytic domain 1-553 (O75116 1-553): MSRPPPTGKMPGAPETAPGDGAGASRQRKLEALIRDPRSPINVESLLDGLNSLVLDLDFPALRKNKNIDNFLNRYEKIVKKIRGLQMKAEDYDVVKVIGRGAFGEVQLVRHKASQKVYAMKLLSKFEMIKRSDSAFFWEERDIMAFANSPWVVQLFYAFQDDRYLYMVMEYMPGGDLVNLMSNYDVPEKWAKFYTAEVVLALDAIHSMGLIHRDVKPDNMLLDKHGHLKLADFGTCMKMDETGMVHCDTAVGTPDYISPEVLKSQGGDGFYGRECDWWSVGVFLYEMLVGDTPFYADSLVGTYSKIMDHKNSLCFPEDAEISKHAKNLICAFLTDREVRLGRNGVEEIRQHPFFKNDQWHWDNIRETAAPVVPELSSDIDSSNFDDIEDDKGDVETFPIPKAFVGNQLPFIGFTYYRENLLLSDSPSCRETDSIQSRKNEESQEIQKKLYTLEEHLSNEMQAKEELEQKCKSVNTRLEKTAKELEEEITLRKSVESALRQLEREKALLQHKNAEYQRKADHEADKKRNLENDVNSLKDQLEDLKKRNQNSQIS
Description: as §1, §2

Compound | IC50 [1] [µM] | IC50 [2] [µM] | Selectivity for ROCK2 over ROCK1 (IC50 ROCK1 / IC50 ROCK2) [2]
CC(=O)Nc1ccc(S(C)(=O)=O)c(-c2nnc(Nc3ccc4[nH]ncc4c3Cl)s2)c1 [Example 48E] | 15 to 30 | 1 to 15 | <5
CSc1ccc(NC(C)=O)cc1-c1nnc(Nc2ccc3[nH]ncc3c2Cl)s1 [Example 48F] | < 1 | < 1 | >5
Cn1cccc(-c2nnc(Nc3ccc4[nH]ncc4c3Cl)s2)c1=O.O=C(O)C(F)(F)F [Example 56H] | > 30 | < 1 | >100
CC(C)(O)CNC(=O)c1cccc(-c2nnc(Nc3ccc4[nH]ncc4c3Cl)s2)c1 [Example 75F] | 1 to 15 | < 1 | >5
CC(C)c1cn2cccc(-c3nnc(Nc4ccc5[nH]ncc5c4Cl)s3)c2n1 [Example 52B] | < 1 | < 1 | <5
COc1ccc(NC(C)=O)cc1-c1nnc(Nc2ccc3[nH]ncc3c2Cl)s1 [Example 48J] | < 1 | < 1 | >5
COc1ccc(CC(=O)Nc2cccc(-c3nnc(Nc4ccc5[nH]ncc5c4Cl)s3)c2)cc1 [Example 35BQ] | < 1 | < 1 | >5
COc1ncc(C(=O)Nc2cccc(-c3nnc(Nc4ccc5[nH]ncc5c4Cl)s3)c2)cn1.O=C(O)C(F)(F)F [Example 35AU] | > 30 | < 1 | >100
CN(c1nnc(-c2cccc(NC(=O)Cc3ccc(C#N)cc3)c2)s1)c1ccc2[nH]ncc2c1Cl [Example 54B] | > 30 | 15 to 30 | <5
Cn1cc(C(=O)Nc2cc(C(=O)O)cc(-c3nnc(Nc4ccc5[nH]ncc5c4Cl)s3)c2)cn1 [Example 48AC] | < 1 | < 1 | >5
CN1C(=O)Cc2c(-c3nnc(Nc4ccc5[nH]ncc5c4Cl)s3)cccc21.O=C(O)C(F)(F)F [Example 43, 4-(5-((4-Chloro-1H-indazol-5-yl)amino)-1,3,4-thiadiazol-2-yl)-1-methylindolin-2-one 2,2,2-trifluoroacetic Acid Solvate] | 1 to 15 | < 1 | >5
CCOC(=O)N(c1nnc(-c2cccc(NC(=O)Cc3ccc(F)cc3)c2)s1)c1ccc2[nH]ncc2c1Cl [Example 54A] | – | 1 to 15 | –
N[C@@H](Cc1ccc(O)cc1)C(=O)Nc1cccc(-c2nnc(Nc3ccc4[nH]ncc4c3Cl)s2)c1.O=C(O)C(F)(F)F [Example 35AK] | < 1 | < 1 | <5
Clc1c(Nc2nnc(-c3cccn4cc(-c5ccc(Br)cc5)nc34)s2)ccc2[nH]ncc12 [Example 52E] | > 30 | < 1 | >100
Cn1cc(C(=O)Nc2cc(-c3nnc(Nc4ccc5[nH]ncc5c4Cl)s3)ccc2C(F)(F)F)cn1 [Example 48N] | > 30 | < 1 | >100
CC(=O)Nc1cc(-c2nnc(Nc3ccc4[nH]ncc4c3Cl)s2)cc(C(F)(F)F)c1 [Example 48K] | > 30 | < 1 | >100
O=C1Cc2cccc(-c3nnc(Nc4ccc5[nH]ncc5c4Cl)s3)c2N1 [Example 56E] | > 30 | < 1 | >50
c1cc2[nH]ncc2cc1Nc1nnc(C2CNCCN2)s1 (centres unmarked) [Example A-29] | 1 to 15 | 1 to 15 | <5
O=C(Nc1cccc(-c2nnc(Nc3ccc4[nH]ncc4c3Cl)s2)c1)C1CCNCC1 [Example 35AC] | 1 to 15 | – | –
CC1(C(=O)Nc2cccc(-c3nnc(Nc4ccc5[nH]ncc5c4Cl)s3)c2)CCCCC1 [Example 35L] | 1 to 15 | – | –
Clc1c(Nc2nnc(-c3cccc4c3ncn4CCN3CCCC3)s2)ccc2[nH]ncc12 [Example 56A] | – | 1 to 15 | –

Second part, the compound after the results:

IC50 [1] [µM] | IC50 [2] [µM] | Selectivity for ROCK2 over ROCK1 (IC50 ROCK1 / IC50 ROCK2) [2] | Compound
1 to 15 | 1 to 15 | – | CC(=O)Nc1cccc(-c2nnc(N(C)c3ccc4[nH]ncc4c3)s2)c1 [Example 54D]
> 30 | < 1 | >100 | Cn1ccnc1-c1cccc(-c2nnc(Nc3ccc4[nH]ncc4c3Cl)s2)c1.O=C(O)C(F)(F)F [Example 46E]
> 30 | – | >100 | Cn1cc(C(=O)Nc2cc(-c3nnc(Nc4ccc5[nH]ncc5c4)s3)ccn2)cn1.O=C(O)C(F)(F)F [Example 35BY]
1 to 15 | 1 to 15 | >5 | O=C(O)COc1cccc(-c2nnc(Nc3ccc4[nH]ncc4c3)s2)c1 [Example A-22]
> 30 | < 1 | >100 | Cn1cc(C(=O)Nc2cc(F)c(F)c(-c3nnc(Nc4ccc5[nH]ncc5c4)s3)c2)cn1 [Example 35BZ]
< 1 | < 1 | >5 | Cn1cc(C(=O)Nc2cc(-c3nnc(Nc4ccc5[nH]ncc5c4)s3)ccc2C(=O)O)cn1 [Example A-5]
1 to 15 | 1 to 15 | >5 | CCS(=O)(=O)Nc1cncc(-c2nnc(Nc3ccc4[nH]ncc4c3)s2)c1 [Example A-14]
> 30 | 1 to 15 | >5 | Nc1cccc(-c2nnc(Nc3ccc4[nH]ncc4c3)s2)c1 [Example A-47]
> 30 | < 1 | >5 | Nc1cccc(-c2nnc(Nc3ccc4[nH]ncc4c3)s2)n1.O=C(O)C(F)(F)F [Example 35CR]
15 to 30 | 15 to 30 | – | COc1cccc(-c2nnc(N(CCO)c3ccc4[nH]ncc4c3)s2)c1 [Example 54E]
1 to 15 | < 1 | >50 | CC(=O)c1cc(-c2nnc(Nc3ccc4[nH]ncc4c3Cl)s2)ccn1 [Example 35CV]
> 30 | < 1 | >100 | COc1cccc(-c2cccc(-c3nnc(Nc4ccc5[nH]ncc5c4Cl)s3)c2)n1 [Example 46H]
< 1 | < 1 | >5 | O=C(Cc1ccc(F)cc1)Nc1cc(-c2nnc(Nc3ccc4[nH]ncc4c3Cl)s2)ccn1 [Example 35G]
< 1 | < 1 | <5 | O=C(Cc1ncccn1)Nc1cccc(-c2nnc(Nc3ccc4[nH]ncc4c3Cl)s2)c1 [Example 35AP]
> 30 | < 1 | >100 | CC(=O)Nc1cc(-c2ncco2)cc(-c2nnc(Nc3ccc4[nH]ncc4c3Cl)s2)c1.O=C(O)C(F)(F)F [Example 46M]
1 to 15 | < 1 | >5 | CC(=O)Cc1cccc(-c2nnc(Nc3ccc4[nH]ncc4c3Cl)s2)c1 [Example 35AF]
> 30 | < 1 | >100 | c1cc(-c2ncco2)cc(-c2nnc(Nc3ccc4[nH]ncc4c3)s2)c1 [Example A-30]
> 30 | > 30 | <5 | c1cc(-c2nnco2)cc(-c2nnc(Nc3ccc4[nH]ncc4c3)s2)c1 [Example A-6]
1 to 15 | < 1 | >5 | c1csc(-c2cncc(-c3nnc(Nc4ccc5[nH]ncc5c4)s3)c2)c1 [Example 39D]
< 1 | < 1 | >5 | CC(=O)Nc1cccc(-c2nnc(Nc3ccc4[nH]ncc4c3Cl)s2)c1 [Example 35Y]
1 to 15 | 1 to 15 | <5 | CS(=O)(=O)Nc1cncc(-c2nnc(Nc3ccc4[nH]ncc4c3)s2)c1 [Example A-18]
> 30 | < 1 | >100 | Cc1cccc(-c2cccc(-c3nnc(Nc4ccc5[nH]ncc5c4Cl)s3)c2)n1 [Example 75R]
< 1 | < 1 | >5 | CC(C)n1ccnc1-c1cccc(-c2nnc(Nc3ccc4[nH]ncc4c3Cl)s2)c1.O=C(O)C(F)(F)F [Example 46A]
> 30 | < 1 | >50 | CC(C)NC(=O)COc1cncc(-c2nnc(Nc3ccc4[nH]ncc4c3)s2)c1 [Example A-7]
> 30 | < 1 | >100 | CC(=O)Nc1cc(-c2nnc(Nc3ccc4[nH]ncc4c3Cl)s2)ccc1-c1ncco1 [Example 48P]
1 to 15 | – | – | CN1CC(C(=O)Nc2cccc(-c3nnc(Nc4ccc5[nH]ncc5c4Cl)s3)c2)C1 [Example 35X]
> 30 | < 1 | >100 | CC(=O)Oc1cccc(-c2nnc(Nc3ccc4[nH]ncc4c3Cl)s2)c1 [Example 35AG]
